Reference: patent US11525165B2, “Method of selection of an IRE1-inhibitor therapy for patient suffering from cancer” (INSERM (INSTITUT NATIONAL DE LA SANTÉ ET DE LA RECHERCHE …, priority 2017, dated 2022)

Test system: U87 cells
Test: miR-17 level under tunicamycin-induced ER stress
Assay type: cell-based
Settings: data not shown
Procedure: U87MG (ATCC) and U251MG (Sigma, St Louis, Mo., USA) cells were authenticated as recommended by AACR (http://aacrjournals.org/content/cell-line-authentication-information) and tested for the absence of mycoplasma using MycoAlert® (Lonza, Basel, Switzerland) or MycoFluor (Invitrogen, Carlsbad, Calif., USA). U87 cells (ATCC) were grown in DMEM glutamax (Invitrogen, Carlsbad, Calif., USA) supplemented with 10% FBS. U87 were stably transfected at MOI=0.3 with pCDH-CMV-MCS-EF1-Puro-copGFP (System biosciences) empty vector (EV), pCDH-CMV-MCS-EF1-Puro-copGFP containing IRE1alpha wild-type sequence (WT) or mutated sequence (P336L, A414T, S769F or Q780*). U87 cells were selected using 2 μg/mL puromycin and polyclonal populations were tested for GFP expression. Transfections of GBM primary cell lines with IRE1 WT and Q780* were performed using Lipofectamine LTX (ThermoFisher Scientific), according to the manufacturer's instructions. For microarray experiments, tunicamycin (purchased from Calbiochem (Merck KGaA, Darmstadt, Germany)) was used at […] for 16 hrs. Actinomycin D were purchased from Sigma-Aldrich (St Louis, Mo., USA) and used as indicated. […]
Total RNA was prepared using the Trizol reagent (Invitrogen, Carlsbad, Calif., USA). Semi-quantitative analyses were carried out as previously described. […]

Substance: tunicamycin
- miR-17 degradation: led to further miR-17 degradation
